Results taken from the kinase profiling compilation of Christmann-Franck et al. (2016).
Values joined by “and” are separate entries in the source; they are usually repeats but may differ in a detail not shown here. Equal entries are not always repeated.

Legend:
Assay in all cases: radiometric filter-binding kinase assay, Kinase HotSpot
Settings in all cases: compound 0.5 µM; ATP 10 µM
[1] = target: RPS6KB1 (human) (UniProt P23443)
[2] = target: OXSR1 (human) (UniProt O95747)
[3] = target: HCK (human) (UniProt P08631)
[4] = target: FRK (human) (UniProt P42685)
[5] = target: DYRK4 (human) (UniProt Q9NR20)
[6] = target: IKBKB (human) (UniProt O14920)
[7] = target: TTK (human) (UniProt P33981)
[8] = target: NEK3 (human) (UniProt P51956)
[9] = target: MYLK (human) (UniProt Q15746)
[10] = target: TBK1 (human) (UniProt Q9UHD2)
[11] = target: CAMKK1 (human) (UniProt Q8N5S9)
[12] = target: MARK4 (human) (UniProt Q96L34)
[13] = target: CSF1R (human) (UniProt P07333)
[14] = target: MELK (human) (UniProt Q14680)
[15] = target: PDGFRB (human) (UniProt P09619)
[16] = target: PRKCB1 (human) (UniProt P05771)
[17] = target: EPHB1 (human) (UniProt P54762)
[18] = target: TGFBR2 (human) (UniProt P37173)
[19] = target: EPHA5 (human) (UniProt P54756)
[20] = target: PKN2 (human) (UniProt Q16513)
[21] = target: STK16 (human) (UniProt O75716)
[22] = target: AKT2 (human) (UniProt P31751)
[23] = target: TEC (human) (UniProt P42680)
[24] = target: MAPK13 (human) (UniProt O15264)
[25] = target: NUAK2 (human) (UniProt Q9H093)
[26] = target: PIM3 (human) (UniProt Q86V86)
[27] = target: CDK4 CCND3 (human) (UniProt P30281+P11802)
[28] = target: TNK2 (human) (UniProt Q07912)
[29] = target: AURKA (human) (UniProt O14965)
[30] = target: EPHA3 (human) (UniProt P29320)
[31] = target: LYN (human) (UniProt P07948)
[32] = target: CAMK4 (human) (UniProt Q16566)
[33] = target: GRK5 (human) (UniProt P34947)
[34] = target: HIPK1 (human) (UniProt Q86Z02)
[35] = target: PTK2 (human) (UniProt Q05397)
[36] = target: NEK11 (human) (UniProt Q8NG66)
[37] = target: HIPK2 (human) (UniProt Q9H2X6)
[38] = target: CAMK1D (human) (UniProt Q8IU85)
[39] = target: FYN (human) (UniProt P06241)
[40] = target: MATK (human) (UniProt P42679)
[41] = target: SLK (human) (UniProt Q9H2G2)
[42] = target: ADRBK1 (human) (UniProt P25098)

Sequence of TNK2 (human) (Q07912 whole entry, looked up): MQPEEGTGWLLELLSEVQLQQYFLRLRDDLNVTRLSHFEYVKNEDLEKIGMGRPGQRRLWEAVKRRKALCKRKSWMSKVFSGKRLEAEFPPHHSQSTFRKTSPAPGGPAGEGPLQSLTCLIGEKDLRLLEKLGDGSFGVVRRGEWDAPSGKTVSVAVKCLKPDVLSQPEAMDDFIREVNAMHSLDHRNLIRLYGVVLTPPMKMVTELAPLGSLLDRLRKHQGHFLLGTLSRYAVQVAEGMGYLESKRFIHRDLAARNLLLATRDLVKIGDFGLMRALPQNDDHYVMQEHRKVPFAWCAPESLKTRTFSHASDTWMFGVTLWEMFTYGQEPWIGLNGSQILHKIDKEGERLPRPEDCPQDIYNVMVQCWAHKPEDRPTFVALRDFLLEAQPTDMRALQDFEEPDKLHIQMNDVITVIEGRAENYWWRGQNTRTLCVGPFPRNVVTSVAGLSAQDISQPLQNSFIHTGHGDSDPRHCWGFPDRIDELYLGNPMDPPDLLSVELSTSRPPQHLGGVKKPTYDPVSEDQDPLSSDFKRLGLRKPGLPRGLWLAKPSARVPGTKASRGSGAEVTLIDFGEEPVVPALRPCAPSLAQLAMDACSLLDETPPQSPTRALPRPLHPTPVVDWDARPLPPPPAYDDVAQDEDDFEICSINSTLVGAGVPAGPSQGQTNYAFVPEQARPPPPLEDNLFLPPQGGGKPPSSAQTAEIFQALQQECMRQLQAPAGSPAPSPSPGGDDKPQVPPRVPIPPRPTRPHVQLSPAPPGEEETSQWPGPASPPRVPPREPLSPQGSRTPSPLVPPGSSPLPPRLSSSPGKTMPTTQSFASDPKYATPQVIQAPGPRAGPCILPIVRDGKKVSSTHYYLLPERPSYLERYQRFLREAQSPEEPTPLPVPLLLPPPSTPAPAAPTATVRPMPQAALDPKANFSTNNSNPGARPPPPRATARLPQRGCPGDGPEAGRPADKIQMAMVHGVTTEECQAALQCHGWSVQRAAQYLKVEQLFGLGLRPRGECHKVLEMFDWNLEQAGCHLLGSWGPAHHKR
Sequence of CAMKK1 (human) (Q8N5S9 whole entry, looked up): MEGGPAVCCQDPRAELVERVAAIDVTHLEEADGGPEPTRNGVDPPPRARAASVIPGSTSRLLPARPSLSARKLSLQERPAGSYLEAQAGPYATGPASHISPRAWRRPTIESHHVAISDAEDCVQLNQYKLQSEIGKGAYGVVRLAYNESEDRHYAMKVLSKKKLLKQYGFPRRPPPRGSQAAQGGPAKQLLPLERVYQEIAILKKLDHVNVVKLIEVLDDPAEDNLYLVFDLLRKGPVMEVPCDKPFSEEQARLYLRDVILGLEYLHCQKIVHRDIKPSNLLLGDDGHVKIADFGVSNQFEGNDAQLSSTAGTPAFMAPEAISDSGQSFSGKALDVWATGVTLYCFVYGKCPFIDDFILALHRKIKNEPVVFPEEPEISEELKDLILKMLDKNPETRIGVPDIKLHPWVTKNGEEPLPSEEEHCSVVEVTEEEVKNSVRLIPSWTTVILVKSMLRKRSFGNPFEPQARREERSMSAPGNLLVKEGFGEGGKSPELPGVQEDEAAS
Sequence of GRK5 (human) (P34947 whole entry, looked up): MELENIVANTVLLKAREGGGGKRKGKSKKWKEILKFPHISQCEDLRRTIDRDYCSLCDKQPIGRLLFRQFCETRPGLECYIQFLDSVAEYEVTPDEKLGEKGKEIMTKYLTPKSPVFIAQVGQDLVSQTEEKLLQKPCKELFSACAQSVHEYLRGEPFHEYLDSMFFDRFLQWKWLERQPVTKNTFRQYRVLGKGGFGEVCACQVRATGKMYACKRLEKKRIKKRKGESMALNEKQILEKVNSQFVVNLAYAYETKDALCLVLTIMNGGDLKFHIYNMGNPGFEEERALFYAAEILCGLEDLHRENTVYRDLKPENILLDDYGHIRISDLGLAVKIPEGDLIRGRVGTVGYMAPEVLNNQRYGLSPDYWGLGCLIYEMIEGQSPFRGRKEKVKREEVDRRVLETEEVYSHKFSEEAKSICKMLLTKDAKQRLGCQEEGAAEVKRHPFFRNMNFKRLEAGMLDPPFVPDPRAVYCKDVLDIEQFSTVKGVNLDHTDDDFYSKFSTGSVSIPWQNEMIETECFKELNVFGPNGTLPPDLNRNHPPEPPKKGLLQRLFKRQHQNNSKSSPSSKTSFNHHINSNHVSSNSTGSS
Sequence of LYN (human) (P07948 whole entry, looked up): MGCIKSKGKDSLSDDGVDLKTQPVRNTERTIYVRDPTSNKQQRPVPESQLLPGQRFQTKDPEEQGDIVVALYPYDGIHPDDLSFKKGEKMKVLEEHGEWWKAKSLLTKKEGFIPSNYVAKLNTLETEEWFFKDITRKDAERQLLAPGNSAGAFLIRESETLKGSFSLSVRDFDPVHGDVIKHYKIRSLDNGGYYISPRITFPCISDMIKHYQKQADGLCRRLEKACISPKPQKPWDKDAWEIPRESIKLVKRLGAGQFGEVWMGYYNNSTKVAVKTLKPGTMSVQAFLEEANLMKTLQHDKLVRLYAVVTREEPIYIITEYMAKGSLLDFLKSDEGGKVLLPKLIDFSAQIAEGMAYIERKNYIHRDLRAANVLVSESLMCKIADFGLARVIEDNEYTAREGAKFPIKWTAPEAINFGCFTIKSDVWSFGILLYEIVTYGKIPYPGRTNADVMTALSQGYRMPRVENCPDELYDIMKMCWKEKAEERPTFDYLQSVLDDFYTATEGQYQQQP
Sequence of HCK (human) (P08631 whole entry, looked up): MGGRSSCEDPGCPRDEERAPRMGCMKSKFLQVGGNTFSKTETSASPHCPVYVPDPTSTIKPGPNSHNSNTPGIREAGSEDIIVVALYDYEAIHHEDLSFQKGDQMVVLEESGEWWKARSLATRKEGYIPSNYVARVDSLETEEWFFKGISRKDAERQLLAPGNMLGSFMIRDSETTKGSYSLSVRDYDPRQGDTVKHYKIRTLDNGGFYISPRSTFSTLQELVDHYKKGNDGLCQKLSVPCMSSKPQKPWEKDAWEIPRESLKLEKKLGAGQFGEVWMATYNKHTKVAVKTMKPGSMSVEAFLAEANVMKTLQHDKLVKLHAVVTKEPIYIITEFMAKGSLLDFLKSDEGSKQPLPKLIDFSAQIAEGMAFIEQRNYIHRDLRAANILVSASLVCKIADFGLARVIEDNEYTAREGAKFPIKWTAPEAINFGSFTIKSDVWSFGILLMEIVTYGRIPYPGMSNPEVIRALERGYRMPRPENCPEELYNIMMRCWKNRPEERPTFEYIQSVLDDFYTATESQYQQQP
Sequence of NEK3 (human) (P51956 whole entry, looked up): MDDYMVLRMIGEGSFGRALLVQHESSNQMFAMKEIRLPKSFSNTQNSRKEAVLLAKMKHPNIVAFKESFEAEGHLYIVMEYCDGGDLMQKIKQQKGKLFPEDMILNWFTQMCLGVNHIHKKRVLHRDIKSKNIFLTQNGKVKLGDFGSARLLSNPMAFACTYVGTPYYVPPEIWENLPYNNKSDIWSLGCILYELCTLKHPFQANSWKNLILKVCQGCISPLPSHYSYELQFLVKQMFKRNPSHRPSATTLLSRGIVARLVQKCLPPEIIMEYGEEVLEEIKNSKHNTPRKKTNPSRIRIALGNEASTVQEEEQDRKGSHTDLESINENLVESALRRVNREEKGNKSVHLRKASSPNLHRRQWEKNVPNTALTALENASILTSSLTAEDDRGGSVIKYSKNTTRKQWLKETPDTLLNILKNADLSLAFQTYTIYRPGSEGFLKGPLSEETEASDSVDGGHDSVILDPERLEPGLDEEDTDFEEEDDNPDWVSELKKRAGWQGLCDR
Sequence of EPHB1 (human) (P54762 whole entry, looked up): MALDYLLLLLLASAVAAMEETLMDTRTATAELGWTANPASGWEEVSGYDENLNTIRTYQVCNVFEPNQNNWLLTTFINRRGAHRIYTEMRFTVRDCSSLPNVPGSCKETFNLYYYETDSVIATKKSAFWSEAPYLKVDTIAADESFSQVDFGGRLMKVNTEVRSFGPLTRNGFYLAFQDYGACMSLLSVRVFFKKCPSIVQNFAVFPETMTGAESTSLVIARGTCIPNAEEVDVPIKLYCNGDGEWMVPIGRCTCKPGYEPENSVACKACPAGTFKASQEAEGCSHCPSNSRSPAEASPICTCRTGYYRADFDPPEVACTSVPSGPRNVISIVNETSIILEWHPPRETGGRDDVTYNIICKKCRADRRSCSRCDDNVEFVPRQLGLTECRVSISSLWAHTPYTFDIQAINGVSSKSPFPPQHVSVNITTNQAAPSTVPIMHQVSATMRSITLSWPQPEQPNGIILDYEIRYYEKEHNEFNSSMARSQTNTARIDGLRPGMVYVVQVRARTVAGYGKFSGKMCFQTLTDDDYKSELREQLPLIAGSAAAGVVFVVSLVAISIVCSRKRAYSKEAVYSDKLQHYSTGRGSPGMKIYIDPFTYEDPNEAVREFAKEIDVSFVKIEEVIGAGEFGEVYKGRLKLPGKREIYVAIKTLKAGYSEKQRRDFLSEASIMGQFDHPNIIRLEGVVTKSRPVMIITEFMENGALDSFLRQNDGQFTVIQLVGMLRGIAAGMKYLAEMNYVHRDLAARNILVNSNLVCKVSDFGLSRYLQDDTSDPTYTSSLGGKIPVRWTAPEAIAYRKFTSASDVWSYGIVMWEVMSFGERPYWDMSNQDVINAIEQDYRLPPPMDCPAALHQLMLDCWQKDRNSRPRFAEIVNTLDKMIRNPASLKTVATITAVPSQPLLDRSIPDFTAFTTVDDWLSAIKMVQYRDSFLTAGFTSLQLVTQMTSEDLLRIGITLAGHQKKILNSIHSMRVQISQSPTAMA
Sequence of CAMK1D (human) (Q8IU85 whole entry, looked up): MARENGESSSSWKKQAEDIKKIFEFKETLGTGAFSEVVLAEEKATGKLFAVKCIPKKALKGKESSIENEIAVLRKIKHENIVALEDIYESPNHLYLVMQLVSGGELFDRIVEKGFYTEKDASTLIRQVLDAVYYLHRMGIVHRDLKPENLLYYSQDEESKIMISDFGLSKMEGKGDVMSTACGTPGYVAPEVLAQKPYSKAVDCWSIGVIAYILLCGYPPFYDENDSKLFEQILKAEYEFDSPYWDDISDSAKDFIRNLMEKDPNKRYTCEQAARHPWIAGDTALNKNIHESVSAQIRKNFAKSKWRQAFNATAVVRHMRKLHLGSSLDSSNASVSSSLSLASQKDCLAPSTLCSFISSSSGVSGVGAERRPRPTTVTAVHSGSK

COc1cc2c(cc1OC)-c1[nH]nc(Nc3cccc(F)c3)c1C2
residual activity [1]: 99.1%
residual activity [2]: 121%
residual activity [3]: 61.9%
residual activity [4]: 67.9%
residual activity [5]: 92.6%
residual activity [6]: 98.2%
residual activity [7]: 84.1%
residual activity [8]: 97.1%
residual activity [9]: 102%
residual activity [10]: 101%
residual activity [11]: 81.5%
residual activity [12]: 70.6%
residual activity [13]: 20%
residual activity [14]: 72.1%
residual activity [15]: 45.3%
residual activity [16]: 96%
residual activity [17]: 100%
residual activity [18]: 100%
residual activity [19]: 93.4%
residual activity [20]: 92%
residual activity [21]: 96.8%
residual activity [22]: 95.3%
residual activity [23]: 95%
residual activity [24]: 99.7%
residual activity [25]: 94.6%
residual activity [26]: 95.3%
residual activity [27]: 95.4%
residual activity [28]: 15.1%
residual activity [29]: 94.6%
residual activity [30]: 94.5%
residual activity [31]: 60.2% and 77.5%
residual activity [32]: 106%
residual activity [33]: 95.8%
residual activity [34]: 96.4%
residual activity [35]: 88.2%
residual activity [36]: 98.9%
residual activity [37]: 103%
residual activity [38]: 89.8%
residual activity [39]: 73.4%
residual activity [40]: 92.1%
residual activity [41]: 95.4%
residual activity [42]: 93%

COc1cc2ncnc(Nc3ccc(O)c(Br)c3)c2cc1OC
residual activity [1]: 82.1%
residual activity [2]: 98.8%
residual activity [3]: 52.2%
residual activity [4]: 74.7%
residual activity [5]: 101%
residual activity [6]: 88.1%
residual activity [7]: 105%
residual activity [8]: 88.4%
residual activity [9]: 84.6%
residual activity [10]: 84.7%
residual activity [11]: 95.8%
residual activity [12]: 92.4%
residual activity [13]: 95.3%
residual activity [14]: 83.4%
residual activity [15]: 93.7%
residual activity [16]: 96.6%
residual activity [17]: 81.4%
residual activity [18]: 105%
residual activity [19]: 72.3%
residual activity [20]: 97.2%
residual activity [21]: 104%
residual activity [22]: 98.7%
residual activity [23]: 108%
residual activity [24]: 102%
residual activity [25]: 88.3%
residual activity [26]: 73.3%
residual activity [27]: 110%
residual activity [28]: 10.5%
residual activity [29]: 83.1%
residual activity [30]: 95.4%
residual activity [31]: 40.3% and 60%
residual activity [32]: 95.6%
residual activity [33]: 101%
residual activity [34]: 104%
residual activity [35]: 99.5%
residual activity [36]: 103%
residual activity [37]: 102%
residual activity [38]: 98.6%
residual activity [39]: 80.4%
residual activity [40]: 98%
residual activity [41]: 50.3%
residual activity [42]: 99%

CCOc1cc2ncnc(Nc3cccc(Br)c3)c2cc1OCC
residual activity [1]: 95.8%
residual activity [2]: 102%
residual activity [3]: 59.4%
residual activity [4]: 85.9%
residual activity [5]: 96.9%
residual activity [6]: 102%
residual activity [7]: 91.2%
residual activity [8]: 100%
residual activity [9]: 89.4%
residual activity [10]: 85.4%
residual activity [11]: 88.2%
residual activity [12]: 99.2%
residual activity [13]: 87.6%
residual activity [14]: 88.1%
residual activity [15]: 94.8%
residual activity [16]: 100%
residual activity [17]: 73.8%
residual activity [18]: 83.4%
residual activity [19]: 69.5%
residual activity [20]: 90%
residual activity [21]: 98.4%
residual activity [22]: 87.6%
residual activity [23]: 120%
residual activity [24]: 96.7%
residual activity [25]: 89.7%
residual activity [26]: 105%
residual activity [27]: 97.8%
residual activity [28]: 58.8%
residual activity [29]: 110%
residual activity [30]: 83.3%
residual activity [31]: 32.1% and 49.5%
residual activity [32]: 98.7%
residual activity [33]: 104%
residual activity [34]: 104%
residual activity [35]: 101%
residual activity [36]: 103%
residual activity [37]: 96.8%
residual activity [38]: 102%
residual activity [39]: 78.9%
residual activity [40]: 90.5%
residual activity [41]: 64.8%
residual activity [42]: 95.4%
